# From ChEMBL document CHEMBL4699592, “Nature-Inspired (di)Azine-Bridged Bisindole Alkaloids with Potent Antibacterial In Vitro and In Vivo Efficacy against Methicillin-Resistant Staphylococcus aureus” (J Med Chem, 2020)
# The source made the active and inactive calls. The rule behind the calls is not given here.
# Tests used:
# Pseudomonas aeruginosa [1] = test: Synergistic antibacterial activity against Pseudomonas aeruginosa ATCC 27853 assessed as FIC after 24 hrs in presence of colistin by checkerboard assay relative to test compound MIC; format: functional
# Staphylococcus aureus [2] = test: Bactericidal activity against […] Staphylococcus aureus ATCC 700699 assessed as reduction in bacterial viability at 5 fold MIC incubated for 6 hrs by time kill assay relative to control; format: functional
# [3] = Selectivity index, ratio of IC50 for cytotoxicity against human MRC5 cells to MIC90 for antibacterial activity against […] Staphylococcus aureus ATCC 700699; format: toxicity, cell-based; settings: read-out: Selectivity Index
# Pseudomonas aeruginosa [4] = test: Synergistic antibacterial activity against Pseudomonas aeruginosa ATCC 27853 assessed as FICI after 24 hrs in presence of colistin by checkerboard assay; format: functional
# Acinetobacter baumannii [5] = test: Synergistic antibacterial activity against Acinetobacter baumannii ATCC BAA-1605 assessed as FIC after 24 hrs in presence of colistin by checkerboard assay relative to colistin; format: functional
# [6] = biological target: Pyruvate kinase PKM (Oryctolagus cuniculus) (UniProt P11974); test: Inhibition of rabbit muscle pyruvate kinase up to 12.5 uM using phosphoenolpyruvate as substrate measured for 5 mins by LDH-coupled assay; settings: dose microM <=12.5, time 5.0 min
# Staphylococcus aureus [7] = test: Inhibition of Staphylococcus aureus ATCC 700699 N-terminal His6-tagged pyruvate kinase expressed in Escherichia coli NiCo21(DE3) at 12.5 uM using phosphoenolpyruvate as substrate measured for 5 mins by LDH-coupled assay
# Pseudomonas aeruginosa [8] = test: Antibacterial activity against Pseudomonas aeruginosa ATCC 27853 measured after 24 hrs by broth microdilution method; format: functional
# Klebsiella pneumoniae [9] = test: Synergistic antibacterial activity against Klebsiella pneumoniae ATCC 700603 assessed as FICI after 24 hrs in presence of colistin by checkerboard assay; format: functional
# Staphylococcus aureus [10] = test: Antibacterial activity against methicillin susceptible Staphylococcus aureus ATCC 25923 at 0.78 to 100 uM after 24 hrs by broth microdilution method; format: functional, organism-based; settings: dose microM 0.78-100, time 24.0 hrs
# Escherichia coli [11] = test: Antimicrobial activity against Escherichia coli ATCC BAA 2469 after 24 hrs by broth microdilution assay; format: functional
# HEK293 = test: Cytotoxicity against HEK293 cells assessed as reduction in cell viability at >12.5 uM measured after 48 hrs by resazurin dye based fluorescence assay; settings: human, hek293, 48 h
# Klebsiella pneumoniae [12] = test: Antibacterial activity against Klebsiella pneumoniae ATCC 700603 after 24 hrs in presence of colistin by checkerboard assay relative to test compound MIC; format: functional
# Klebsiella pneumoniae [13] = test: Synergistic antibacterial activity against Klebsiella pneumoniae ATCC 700603 assessed as FIC after 24 hrs in presence of colistin by checkerboard assay relative to test compound MIC; format: functional
# Acinetobacter baumannii [14] = test: Antibacterial activity against Acinetobacter baumannii ATCC BAA-1605 at 0.78 to 100 uM after 24 hrs by broth microdilution method; format: functional, organism-based; settings: dose microM 0.78-100, time 24.0 hrs
# Staphylococcus aureus [15] = test: Antibacterial activity against vancomycin-sensitive Staphylococcus aureus T144 infected in Balb/c mouse assessed as reduction in bacterial burden at 5 mg/kg applied topically measured after 12 days by colony counting method; format: functional, organism-based; settings: time 12.0 day
# Staphylococcus aureus [16] = test: Antibacterial activity against methicillin-resistant pyruvate kinase deficient Staphylococcus aureus USA300 LAC at 0.15 to 25 uM incubated for 24 hrs under low pyruvate containing medium by resazurin dye based fluorescence assay; format: functional, organism-based; settings: dose microM 0.15-25, time 24.0 hrs
# Staphylococcus aureus [17] = test: Antibacterial activity against methicillin-resistant Staphylococcus aureus USA300 LAC at 0.15 to 25 uM incubated for 24 hrs under low pyruvate containing medium by resazurin dye based fluorescence assay; format: functional, organism-based; settings: dose microM 0.15-25, time 24.0 hrs
# THP-1 = test: Cytotoxicity against human THP-1 cells assessed as reduction in cell viability at >=12.5 uM measured after 48 hrs by resazurin dye based fluorescence assay; settings: thp-1, 48 h
# [18] = tested on: Mycobacterium tuberculosis; test: Antibacterial activity against Mycobacterium tuberculosis H37Rv at 0.78 to 100 uM after 5 days by resazurin dye based fluorescence assay; format: functional, organism-based; settings: dose microM 0.78-100, time 5.0 day
# Pseudomonas aeruginosa [19] = test: Synergistic antibacterial activity against Pseudomonas aeruginosa ATCC 27853 assessed as FIC after 24 hrs in presence of colistin by checkerboard assay relative to colistin; format: functional
# Acinetobacter baumannii [20] = test: Antibacterial activity against Acinetobacter baumannii ATCC BAA-1605 after 24 hrs by broth microdilution method; format: functional
# [21] = Solubility of compound in pH 7.7 PBS buffer; format: physicochemical
# [22] = Cytotoxicity against human CLS-54 cells assessed as reduction in cell viability at >12.5 uM measured after 48 hrs by resazurin dye based fluorescence assay; settings: cls-54, 48 h
# MRC5 = test: Cytotoxicity against human MRC5 cells assessed as reduction in cell viability at >=12.5 uM measured after 48 hrs by resazurin dye based fluorescence assay; settings: mrc5, 48 h
# Escherichia coli [23] = test: Synergistic antimicrobial activity against Escherichia coli ATCC BAA 2469 assessed as FIC after 24 hrs in presence of colistin by checkerboard assay relative to colistin; format: functional
# Staphylococcus aureus [24] = test: Antibacterial activity against vancomycin-sensitive Staphylococcus aureus T144 infected in Balb/c mouse assessed as increase in wound healing at 5 mg/kg applied topically measured daily for 12 days by microscopic analysis; format: functional, organism-based; settings: time 12.0 day
# HepG2 = test: Cytotoxicity against human HepG2 cells assessed as reduction in cell viability at >12.5 uM measured after 48 hrs by resazurin dye based fluorescence assay; settings: hepg2, 48 h
# Escherichia coli [25] = test: Synergistic antimicrobial activity against Escherichia coli ATCC BAA 2469 assessed as FIC after 24 hrs in presence of colistin by checkerboard assay relative to test compound MIC; format: functional
# Enterococcus faecium [26] = test: Antibacterial activity against vancomycin-resistant Enterococcus faecium ATCC 700221 at 0.78 to 100 uM after 24 hrs by broth microdilution method; format: functional, organism-based; settings: dose microM 0.78-100, time 24.0 hrs
# Escherichia coli [27] = test: Antimicrobial activity against Escherichia coli ATCC BAA 2469 after 24 hrs in presence of colistin by checkerboard assay relative to test compound MIC; format: functional
# Enterococcus faecium [28] = test: Antibacterial activity against vancomycin-resistant Enterococcus faecium ATCC 35667 at 0.78 to 100 uM after 24 hrs by broth microdilution method; format: functional, organism-based; settings: dose microM 0.78-100, time 24.0 hrs
# Staphylococcus aureus [29] = test: Bactericidal activity against […] Staphylococcus aureus ATCC 700699 assessed as colony forming units at 5 fold MIC measured after 24 hrs by time kill assay; format: functional
# Acinetobacter baumannii [30] = test: Synergistic antibacterial activity against Acinetobacter baumannii ATCC BAA-1605 assessed as FICI after 24 hrs in presence of colistin by checkerboard assay; format: functional
# Escherichia coli [31] = test: Synergistic antimicrobial activity against Escherichia coli ATCC BAA 2469 assessed as FICI after 24 hrs in presence of colistin by checkerboard assay; format: functional
# Staphylococcus aureus [32] = test: Antibacterial activity against vancomycin-sensitive Staphylococcus aureus T144 infected in Balb/c mouse peritonitis-sepsis model assessed as increase in survival at 5 mg/kg, ip measured for 48 hrs; format: functional, organism-based
# [33] = Solubility of compound in pH 7.7 DMSO:PBS solution; format: physicochemical; settings: buffer
# Klebsiella pneumoniae [34] = test: Synergistic antibacterial activity against Klebsiella pneumoniae ATCC 700603 assessed as FIC after 24 hrs in presence of colistin by checkerboard assay relative to colistin; format: functional
# Klebsiella pneumoniae [35] = test: Antibacterial activity against Klebsiella pneumoniae ATCC 700603 after 24 hrs by broth microdilution method; format: functional
# Enterococcus faecalis [36] = test: Antibacterial activity against Enterococcus faecalis ATCC 29212 at 0.78 to 100 uM after 24 hrs by broth microdilution method; format: functional, organism-based; settings: dose microM 0.78-100, time 24.0 hrs
# Staphylococcus aureus [37] = test: Antibacterial activity against methicillin-resistant Staphylococcus aureus USA300 LAC at 0.15 to 25 uM incubated for 24 hrs under low glucose medium by resazurin dye based fluorescence assay; format: functional, organism-based; settings: dose microM 0.15-25, time 24.0 hrs
# Staphylococcus aureus [38] = test: Antibacterial activity against […] Staphylococcus aureus ATCC 700699 assessed as ratio of MIC before and after 38 passages by broth microdilution method; format: functional
# Staphylococcus aureus [39] = test: Antibacterial activity against […] Staphylococcus aureus ATCC 700699 after 24 hrs by broth microdilution method; format: functional
# Acinetobacter baumannii [40] = test: Synergistic antibacterial activity against Acinetobacter baumannii ATCC BAA-1605 assessed as FIC after 24 hrs in presence of colistin by checkerboard assay relative to test compound MIC; format: functional
# Enterococcus faecalis [41] = test: Antibacterial activity against Enterococcus faecalis ATCC 51299 at 0.78 to 100 uM after 24 hrs by broth microdilution method; format: functional, organism-based; settings: dose microM 0.78-100, time 24.0 hrs
# [42] = Selectivity index, ratio of IC50 for cytotoxicity against human THP-1 cells to MIC90 for antibacterial activity against […] Staphylococcus aureus ATCC 700699; format: toxicity, cell-based; settings: read-out: Selectivity Index
# Erythrocyte = test: Hemolytic activity against sheep erythrocytes up to 100 uM measured after 1 hr; format: ADME, cell-based, Ovis aries
# Sequence of Pyruvate kinase PKM (Oryctolagus cuniculus) (P11974 whole entry): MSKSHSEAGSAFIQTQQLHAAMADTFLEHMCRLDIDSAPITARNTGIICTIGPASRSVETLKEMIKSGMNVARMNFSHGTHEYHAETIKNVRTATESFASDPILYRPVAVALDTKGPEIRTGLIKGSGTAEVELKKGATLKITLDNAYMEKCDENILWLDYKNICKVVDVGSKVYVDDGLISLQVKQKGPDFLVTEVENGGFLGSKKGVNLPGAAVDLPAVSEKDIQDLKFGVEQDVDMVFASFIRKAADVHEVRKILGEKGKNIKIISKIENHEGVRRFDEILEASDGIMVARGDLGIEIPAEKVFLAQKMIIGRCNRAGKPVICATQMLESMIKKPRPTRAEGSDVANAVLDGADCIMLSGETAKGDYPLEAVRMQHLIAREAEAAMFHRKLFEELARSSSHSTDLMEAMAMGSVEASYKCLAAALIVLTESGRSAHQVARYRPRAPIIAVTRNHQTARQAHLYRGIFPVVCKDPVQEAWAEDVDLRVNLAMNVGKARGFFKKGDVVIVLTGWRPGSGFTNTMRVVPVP
compound,measurement,setting,value
Clc1ccc2[nH]cc(-c3cnc(-c4c[nH]c5ccc(Cl)cc45)nc3)c2c1,FIC,Pseudomonas aeruginosa [1],<=0.0625
same,fold change (FC),Staphylococcus aureus [2],10000
same,selectivity ratio,[3],32
same,fractional inhibitory concentration index (FICI),Pseudomonas aeruginosa [4],<=1.0625
same,FIC,Acinetobacter baumannii [5],0.25
same,inhibition,[6],inactive
same,inhibition,Staphylococcus aureus [7],inactive
same,MIC,Pseudomonas aeruginosa [8],> 100 µM
same,fractional inhibitory concentration index (FICI),Klebsiella pneumoniae [9],<=0.25
same,Activity,Staphylococcus aureus [10],Active
same,MIC,Escherichia coli [11],> 100 µM
same,Activity,HEK293,Toxic
same,Ratio,Klebsiella pneumoniae [12],8
same,FIC,Klebsiella pneumoniae [13],<=0.125
same,Activity,Acinetobacter baumannii [14],Active
same,Activity,Staphylococcus aureus [15],Active
same,Activity,Staphylococcus aureus [16],Active
same,Activity,Staphylococcus aureus [17],Active
same,Activity,THP-1,Toxic
same,Activity,[18],Active
same,FIC,Pseudomonas aeruginosa [19],1
same,MIC,Acinetobacter baumannii [20],> 100 µM
same,solubility,[21],Insoluble
same,Activity,[22],Toxic
same,Activity,MRC5,Toxic
same,FIC,Escherichia coli [23],0.064
same,Activity,Staphylococcus aureus [24],Active
same,Activity,HepG2,Toxic
same,FIC,Escherichia coli [25],<=0.0313
same,Activity,Enterococcus faecium [26],Active
same,Ratio,Escherichia coli [27],32
same,Activity,Enterococcus faecium [28],Active
same,Activity,Staphylococcus aureus [29],<10 CFU/ml
same,fractional inhibitory concentration index (FICI),Acinetobacter baumannii [30],<=0.3125
same,fractional inhibitory concentration index (FICI),Escherichia coli [31],<=0.0953
same,Activity,Staphylococcus aureus [32],Active
same,solubility,[33],Insoluble
same,FIC,Klebsiella pneumoniae [34],0.125
same,MIC,Klebsiella pneumoniae [35],> 100 µM
same,Activity,Enterococcus faecalis [36],Active
same,Activity,Staphylococcus aureus [37],Active
same,Ratio,Staphylococcus aureus [38],2
same,MIC90,Staphylococcus aureus [39],0.39 µM
same,FIC,Acinetobacter baumannii [40],<=0.0625
same,Activity,Enterococcus faecalis [41],Active
same,selectivity ratio,[42],32
same,Activity,Erythrocyte,Non-Toxic
